Assay results: US20150307938A1, “METHOD TO IDENTIFY A NOVEL CLASS OF IMMUNOLOGIC ADJUVANTS” (Lancell, L.L.C., priority 2011, published 2015)

Tested on: skin
Assay: Affymetrix microarray of skin, DBP-4 hr and analogs vs. untreated; gene selection by log-2 fold change, Wilcoxon, Kendall tau (Tables 8, 9)
Type: in vivo, mouse
Settings: for Kendall: Kendall tau coefficient
[1] = DBP-4 hr vs. untreated, rank-sum p-value

CCCCOC(=O)c1ccccc1C(=O)OCCCC [DBP, dibutylphthalate]
Yes: Wilcoxon (2310016C08Rik NM_001190461_at, DBP-4 hr vs. untreated) | Wilcoxon (Adam8 NM_007403_at, DBP-4 hr vs. untreated) | Kendall (Adam8 NM_007403_at) | Wilcoxon (Atf3 NM_007498_at, DBP-4 hr vs. untreated) | Wilcoxon (Btg2 NM_007570_at, DBP-4 hr vs. untreated) | Kendall (Btg2 NM_007570_at) | Wilcoxon (Casp4 NM_007609_at, DBP-4 hr vs. untreated) | Wilcoxon (Cebpd NM_007679_at, DBP-4 hr vs. untreated) | Kendall (Csf2rb NM_007780_at) | Wilcoxon (Cxcl1 NM_008176_at, DBP-4 hr vs. untreated) | 1600029D21Rik (NM_029639_at) Wilcoxon (DBP-4 hr vs. untreated) | 2010002N04Rik (NM_134133_at) Wilcoxon (DBP-4 hr vs. untreated) | 2310016C08Rik (NM_023516_at) Wilcoxon (DBP-4 hr vs. untreated) | 1810011010Rik (NM_026931_at) Wilcoxon (DBP-4 hr vs. untreated) | Acot5 (NM_145444_at) Wilcoxon (DBP-4 hr vs. untreated) | Adamts4 (NM_172845_at) Wilcoxon (DBP-4 hr vs. untreated) | Angptl4 (NM_020581_at) Wilcoxon (DBP-4 hr vs. untreated) | Arc (NM_018790_at) Wilcoxon (DBP-4 hr vs. untreated) | Arid5a (NM_145996_at) Wilcoxon (DBP-4 hr vs. untreated) | Arid5a (NR_033310_at) Wilcoxon (DBP-4 hr vs. untreated) | Bcl3 (NM_033601_at) Wilcoxon (DBP-4 hr vs. untreated) | Ccl1 (NM_011329_at) Wilcoxon (DBP-4 hr vs. untreated) | Ccl2 (NM_011333_at) Wilcoxon (DBP-4 hr vs. untreated) | Ccl3 (NM_011337_at) Wilcoxon (DBP-4 hr vs. untreated) | Ccl7 (NM_013654_at) Wilcoxon (DBP-4 hr vs. untreated) | Ccl9 (NM_011338_at) Wilcoxon (DBP-4 hr vs. untreated) | Ccl12 (NM_011331_at) Wilcoxon (DBP-4 hr vs. untreated) | Ccl17 (NM_011332_at) Wilcoxon (DBP-4 hr vs. untreated) | Ccl20 (NM_016960_at) Wilcoxon (DBP-4 hr vs. untreated) | Cd86 (NM_019388_at) Wilcoxon (DBP-4 hr vs. untreated) | Cd207 (NM_144943_at) Wilcoxon (DBP-4 hr vs. untreated) | Clec4e (NM_019948_at) Wilcoxon (DBP-4 hr vs. untreated) | Clec7a (NM_020008_at) Wilcoxon (DBP-4 hr vs. untreated) | Clec4d (NM_010819_at) Wilcoxon (DBP-4 hr vs. untreated) | Crem (NM_013498_at) Wilcoxon (DBP-4 hr vs. untreated) | Cxcl16 (NM_023158_at) Wilcoxon (DBP-4 hr vs. untreated) | Cyr61 (NM_010516_at) Wilcoxon (DBP-4 hr vs. untreated) | Dusp6 (NM_026268_at) Wilcoxon (DBP-4 hr vs. untreated) | Epgn (NM_053087_at) Wilcoxon (DBP-4 hr vs. untreated) | Gzmb (NM_013542_at) Wilcoxon (DBP-4 hr vs. untreated) | Havcr2 (NM_134250_at) Wilcoxon (DBP-4 hr vs. untreated) | Ier3 (NM_133662_at) Wilcoxon (DBP-4 hr vs. untreated) | Ifi202b (NM_011940_at) Wilcoxon (DBP-4 hr vs. untreated) | Il1f6 (NM_019450_at) Wilcoxon (DBP-4 hr vs. untreated) | Il6 (NM_031168_at) Wilcoxon (DBP-4 hr vs. untreated) | Il20 (NM_021380_at) Wilcoxon (DBP-4 hr vs. untreated) | Klk6 (NM_011177_at) Wilcoxon (DBP-4 hr vs. untreated) | Krt25 (NM_133730_at) Wilcoxon (DBP-4 hr vs. untreated) | Krt27 (NM_010666_at) Wilcoxon (DBP-4 hr vs. untreated) | Krt71 (NM_019956_at) Wilcoxon (DBP-4 hr vs. untreated) | Krtap4-16 (NM_001013823_at) Wilcoxon (DBP-4 hr vs. untreated) | LOC100044068 (XM_001473873_at) Wilcoxon (DBP-4 hr vs. untreated) | LOC100504977 (XM_003085794_at) Wilcoxon (DBP-4 hr vs. untreated) | Maff (NM_010755_at) Wilcoxon (DBP-4 hr vs. untreated) | Mcoln2 (NM_026656_at) Wilcoxon (DBP-4 hr vs. untreated) | NA (AFFX-18SRNAMur/X00686_3_at) Wilcoxon (DBP-4 hr vs. untreated) | NA (AFFX-18SRNAMur/X00686_5_at) Wilcoxon (DBP-4 hr vs. untreated) | NA (AFFX-18SRNAMur/X00686_M_at) Wilcoxon (DBP-4 hr vs. untreated) | NA (AFFX-BioB-3_at) Wilcoxon (DBP-4 hr vs. untreated) | NA (AFFX-BioB-5_at) Wilcoxon (DBP-4 hr vs. untreated) | NA (AFFX-BioB-M_at) Wilcoxon (DBP-4 hr vs. untreated) | NA (AFFX-BioC-3_at) Wilcoxon (DBP-4 hr vs. untreated) | NA (AFFX-BioC-5_at) Wilcoxon (DBP-4 hr vs. untreated) | NA (AFFX-BioDn-3_at) Wilcoxon (DBP-4 hr vs. untreated) | NA (AFFX-BioDn-5_at) Wilcoxon (DBP-4 hr vs. untreated) | NA (AFFX-ThrX-5_at) Wilcoxon (DBP-4 hr vs. untreated) | Nfil3 (NM_017373_at) Wilcoxon (DBP-4 hr vs. untreated) | Nfkbiz (NM_030612_at) Wilcoxon (DBP-4 hr vs. untreated) | Nr4a2 (NM_013613_at) Wilcoxon (DBP-4 hr vs. untreated) | Pde4b (NM_019840_at) Wilcoxon (DBP-4 hr vs. untreated) | Pdk4 (NM_013743_at) Wilcoxon (DBP-4 hr vs. untreated) | Plek (NM_019549_at) Wilcoxon (DBP-4 hr vs. untreated) | Pmaip1 (NM_021451_at) Wilcoxon (DBP-4 hr vs. untreated) | Prss22 (NM_133731_at) Wilcoxon (DBP-4 hr vs. untreated) | Pyy (NM_145435_at) Wilcoxon (DBP-4 hr vs. untreated) | Rab20 (NM_011227_at) Wilcoxon (DBP-4 hr vs. untreated) | Rgs1 (NM_015811_at) Wilcoxon (DBP-4 hr vs. untreated) | Saa3 (NM_011315_at) Wilcoxon (DBP-4 hr vs. untreated) | Slc5a1 (NM_019810_at) Wilcoxon (DBP-4 hr vs. untreated) | Slc7a5 (NM_011404_at) Wilcoxon (DBP-4 hr vs. untreated) | Slc34a2 (NM_011402_at) Wilcoxon (DBP-4 hr vs. untreated) | Slc39a8 (NM_026228_at) Wilcoxon (DBP-4 hr vs. untreated) | Slfn2 (NM_011408_at) Wilcoxon (DBP-4 hr vs. untreated) | Slfn4 (NM_011410_at) Wilcoxon (DBP-4 hr vs. untreated) | Slpi (NM_011414_at) Wilcoxon (DBP-4 hr vs. untreated) | Smox (NM_145533_at) Wilcoxon (DBP-4 hr vs. untreated) | Stfa3 (NM_025288_at) Wilcoxon (DBP-4 hr vs. untreated) | Timp1 (NM_011593_at) Wilcoxon (DBP-4 hr vs. untreated) | Tlr2 (NM_011905_at) Wilcoxon (DBP-4 hr vs. untreated) | Tnf (NM_013693_at) Wilcoxon (DBP-4 hr vs. untreated) | Tnfrsf12a (NM_013749_at) Wilcoxon (DBP-4 hr vs. untreated) | Tslp (NM_021367_at) Wilcoxon (DBP-4 hr vs. untreated) | Tslp (NR_033206_at) Wilcoxon (DBP-4 hr vs. untreated) | Tubb6 (NM_026473_at) Wilcoxon (DBP-4 hr vs. untreated) | Zc3h12a (NM_153159_at) Wilcoxon (DBP-4 hr vs. untreated) | Zfp36 (NM_011756_at) Wilcoxon (DBP-4 hr vs. untreated) | 1110032A04Rik NM_133675_at Wilcoxon [1] | 2610528A11Rik XR_105647_at Wilcoxon [1] | 1500015010Rik NM_024283_at Wilcoxon [1] | 3110079015Rik NM_028473_at Wilcoxon [1] | A2m NM_175628_at Wilcoxon [1] | AY026312 NM_133359_at Wilcoxon [1] | Actn2 NM_033268_at Wilcoxon [1] | Akr1c14 NM_134072_at Wilcoxon [1] | Aox4 NM_023631_at Wilcoxon [1] | Asb5 NM_029569_at Wilcoxon [1] | Ccl8 NM_021443_at Wilcoxon [1] | Ccl24 NM_019577_at Wilcoxon [1] | Cd209d NM_130904_at Wilcoxon [1] | Ckmt2 NM_198415_at Wilcoxon [1] | Cldn8 NM_018778_at Wilcoxon [1] | Clec4n NM_020001_at Wilcoxon [1] | Cmya5 NM_023821_at Wilcoxon [1] | Comp NM_016685_at Wilcoxon [1] | Corin NM_016869_at Wilcoxon [1] | Crispld1 NM_031402_at Wilcoxon [1] | Cxcl10 NM_021274_at Wilcoxon [1] | Cxcr6 NM_030712_at Wilcoxon [1] | Dbp NM_016974_at Wilcoxon [1] | Ear5 NM_019398_at Wilcoxon [1] | Gm10228 XM_001474297_at Wilcoxon [1] | Gm10228 XM_003086004_at Wilcoxon [1]
No: Kendall (2310016C08Rik NM_001190461_at) | Kendall (Atf3 NM_007498_at) | Wilcoxon (Birc3 NM_007464_at, DBP-4 hr vs. untreated) | Kendall (Birc3 NM_007464_at) | Kendall (Casp4 NM_007609_at) | Wilcoxon (Cd44 NM_001039150_at, DBP-4 hr vs. untreated) | Kendall (Cd44 NM_001039150_at) | Wilcoxon (Cd44 NM_001039151_at, DBP-4 hr vs. untreated) | Kendall (Cd44 NM_001039151_at) | Kendall (Cebpd NM_007679_at) | Wilcoxon (Csf2rb NM_007780_at, DBP-4 hr vs. untreated) | Kendall (Cxcl1 NM_008176_at) | Abcc3 (NM_029600_at) Wilcoxon (DBP-4 hr vs. untreated) | Akap12 (NM_031185_at) Wilcoxon (DBP-4 hr vs. untreated) | Bcar3 (NM_013867_at) Wilcoxon (DBP-4 hr vs. untreated) | Bhlhe40 (NM_011498_at) Wilcoxon (DBP-4 hr vs. untreated) | Calcb (NM_054084_at) Wilcoxon (DBP-4 hr vs. untreated) | Clic4 (NM_013885_at) Wilcoxon (DBP-4 hr vs. untreated) | Cytip (NM_139200_at) Wilcoxon (DBP-4 hr vs. untreated) | Dusp7 (NM_153459_at) Wilcoxon (DBP-4 hr vs. untreated) | Ier2 (NM_010499_at) Wilcoxon (DBP-4 hr vs. untreated) | Jdp2 (NM_030887_at) Wilcoxon (DBP-4 hr vs. untreated) | Jun (NM_010591_at) Wilcoxon (DBP-4 hr vs. untreated) | Klrb1b (NM_030599_at) Wilcoxon (DBP-4 hr vs. untreated) | Krt35 (NM_016880_at) Wilcoxon (DBP-4 hr vs. untreated) | Map3k6 (NM_016693_at) Wilcoxon (DBP-4 hr vs. untreated) | Mt1 (NM_013602_at) Wilcoxon (DBP-4 hr vs. untreated) | Nfkbia (NM_010907_at) Wilcoxon (DBP-4 hr vs. untreated) | Otud7a (NM_130880_at) Wilcoxon (DBP-4 hr vs. untreated) | Plaur (NM_011113_at) Wilcoxon (DBP-4 hr vs. untreated) | Plscr1 (NM_011636_at) Wilcoxon (DBP-4 hr vs. untreated) | Ptges (NM_022415_at) Wilcoxon (DBP-4 hr vs. untreated) | Ramp3 (NM_019511_at) Wilcoxon (DBP-4 hr vs. untreated) | Rnf19b (NM_029219_at) Wilcoxon (DBP-4 hr vs. untreated) | Slc10a6 (NM_029415_at) Wilcoxon (DBP-4 hr vs. untreated) | Slc15a3 (NM_023044_at) Wilcoxon (DBP-4 hr vs. untreated) | Slc25a25 (NM_146118_at) Wilcoxon (DBP-4 hr vs. untreated) | Uap1 (NM_133806_at) Wilcoxon (DBP-4 hr vs. untreated) | Zfp593 (NM_024215_at) Wilcoxon (DBP-4 hr vs. untreated) | 2510002D24Rik NM_001033164_at Wilcoxon [1] | 2510009E07Rik NM_001001881_at Wilcoxon [1] | Aldh7a1 NM_001127338_at Wilcoxon [1] | Atp2a2 NM_001110140_at Wilcoxon [1] | Atp13a3 NM_001128094_at Wilcoxon [1] | Atp13a3 NM_001128096_at Wilcoxon [1] | Bcr NM_001081412_at Wilcoxon [1] | Camk2g NM_001039138_at Wilcoxon [1] | Camk2g NM_001039139_at Wilcoxon [1] | Cyth1 NM_001112699_at Wilcoxon [1] | Cyth1 NM_001112700_at Wilcoxon [1] | Deptor NM_001037937_at Wilcoxon [1] | Dlgap4 NM_001042487_at Wilcoxon [1] | Dlgap4 NM_001042488_at Wilcoxon [1] | Fam134b NM_001034851_at Wilcoxon [1] | Gcdh NM_001044744_at Wilcoxon [1]
